Data published in ChEMBL document CHEMBL1909046, “DrugMatrix in vitro pharmacology data”.

How the values were obtained:
[1] = DRUGMATRIX: Tumor Necrosis Factor (TNF), Non-Selective radioligand binding (ligand: [125I] TNF-alpha); type: cell membranes, Membrane; details: u-937; Not Active = under 50% inhibition at 10 µM
[2] = DRUGMATRIX: Calcium Channel Type L, Dihydropyridine radioligand binding (ligand: [3H] Nitrendipine); type: cell membranes, Rattus norvegicus, Wistar, Cerebral cortex, Membrane; details: Not Active = under 50% inhibition at 10 µM
[3] = molecular target: Delta-type opioid receptor (Homo sapiens, UniProt P41143); type: cell membranes, HEK293, Membrane; details: hek293; further: in other assays of this panel Not Active means under 50% inhibition at 10 µM
Chain of Delta-type opioid receptor (P41143 whole entry): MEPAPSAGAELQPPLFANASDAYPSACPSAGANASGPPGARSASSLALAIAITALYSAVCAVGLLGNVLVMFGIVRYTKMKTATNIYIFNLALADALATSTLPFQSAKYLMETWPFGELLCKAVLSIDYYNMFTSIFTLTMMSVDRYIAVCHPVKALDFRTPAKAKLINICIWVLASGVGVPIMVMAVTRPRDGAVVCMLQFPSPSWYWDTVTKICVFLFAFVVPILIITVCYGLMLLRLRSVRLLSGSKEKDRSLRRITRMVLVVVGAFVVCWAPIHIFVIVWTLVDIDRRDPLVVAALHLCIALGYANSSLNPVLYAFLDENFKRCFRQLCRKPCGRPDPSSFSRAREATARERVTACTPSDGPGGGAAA

Adenosine receptor A2a = Adenosine receptor A2a (Homo sapiens, UniProt P29274); experiment: DRUGMATRIX: Adenosine A2A radioligand binding (ligand: […]); type: cell membranes, HEK293, Membrane; details: hek293; Not Active = under 50% inhibition at 10 µM
Chain of Adenosine receptor A2a (P29274 whole entry): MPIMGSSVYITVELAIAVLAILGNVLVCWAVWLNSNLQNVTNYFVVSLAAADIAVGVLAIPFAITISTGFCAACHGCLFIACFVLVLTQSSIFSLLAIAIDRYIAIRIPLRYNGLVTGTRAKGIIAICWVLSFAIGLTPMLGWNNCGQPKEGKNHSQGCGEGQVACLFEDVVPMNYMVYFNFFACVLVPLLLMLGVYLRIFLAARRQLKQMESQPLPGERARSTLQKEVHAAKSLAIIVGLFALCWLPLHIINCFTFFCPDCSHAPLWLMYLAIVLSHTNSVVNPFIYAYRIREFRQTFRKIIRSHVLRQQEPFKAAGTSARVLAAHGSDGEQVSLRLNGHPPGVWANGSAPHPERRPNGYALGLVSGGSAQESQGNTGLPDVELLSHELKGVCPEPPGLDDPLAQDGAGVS

[4] = molecular target: T1, Muscarinic acetylcholine receptor M4 (Homo sapiens, UniProt P08173); type: cell membranes, CHO-K1, Membrane; details: cho-k1; further: in other assays of this panel Not Active means under 50% inhibition at 10 µM
T1 sequence (P08173 whole entry): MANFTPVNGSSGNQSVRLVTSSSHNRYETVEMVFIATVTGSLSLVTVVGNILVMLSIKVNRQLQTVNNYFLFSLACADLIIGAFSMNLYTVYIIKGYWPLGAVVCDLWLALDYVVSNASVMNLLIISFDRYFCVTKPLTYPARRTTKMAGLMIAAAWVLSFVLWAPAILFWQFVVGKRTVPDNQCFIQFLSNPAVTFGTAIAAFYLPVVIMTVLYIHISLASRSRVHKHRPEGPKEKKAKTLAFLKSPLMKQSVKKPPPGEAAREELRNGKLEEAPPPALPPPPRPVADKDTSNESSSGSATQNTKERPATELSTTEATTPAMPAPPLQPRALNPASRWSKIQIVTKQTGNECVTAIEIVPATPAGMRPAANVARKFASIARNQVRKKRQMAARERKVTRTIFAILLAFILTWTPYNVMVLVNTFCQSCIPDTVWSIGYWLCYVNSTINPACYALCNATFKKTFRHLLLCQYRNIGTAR

[5] = DRUGMATRIX: ATPase, Na+/K+ enzyme inhibition (substrate: ATP); type: tissue-based, Sus scrofa, Heart; details: Not Active = under 50% inhibition at 10 µM
[6] = DRUGMATRIX: Calcium Channel Type L, Benzothiazepine radioligand binding (ligand: [3H] Diltiazem); type: cell membranes, Rattus norvegicus, Wistar, Brain, Membrane; details: Not Active = under 50% inhibition at 10 µM

CC(C)C[C@H]1C(=O)N2CCC[C@H]2[C@]2(O)O[C@](NC(=O)[C@@H]3C=C4c5cccc6[nH]c(Br)c(c56)C[C@H]4N(C)C3)(C(C)C)C(=O)N12 [BROMOCRIPTINE]
Not Active: IC50 [1] | Ki [1] | IC50 [2] | Ki [2] | IC50 [3] | IC50 (Adenosine receptor A2a) | IC50 [4] | IC50 [5] | Ki [5] | IC50 [6] | Ki [6]

CS(=O)(=O)OCCCCOS(C)(=O)=O [BUSULFAN]
Not Active: IC50 [1] | Ki [1] | IC50 [2] | Ki [2] | IC50 [3] | IC50 (Adenosine receptor A2a) | IC50 [4] | IC50 [5] | Ki [5] | IC50 [6] | Ki [6]

O=C(/C=C/c1ccc(O)c(O)c1)OCCc1ccccc1 [CAFFEIC ACID PHENETHYL ESTER]
Not Active: IC50 [1] | Ki [1] | IC50 [2] | Ki [2] | IC50 [3] | IC50 (Adenosine receptor A2a) | IC50 [4] | IC50 [5] | Ki [5] | IC50 [6] | Ki [6]

COc1cc(CNC(=O)CCCC/C=C/C(C)C)ccc1O [CAPSAICIN]
Not Active: IC50 [1] | Ki [1] | IC50 [2] | Ki [2] | IC50 [3] | IC50 (Adenosine receptor A2a) | IC50 [4] | IC50 [5] | Ki [5] | IC50 [6] | Ki [6]

NC(=O)N1c2ccccc2C=Cc2ccccc21 [CARBAMAZEPINE]
Not Active: IC50 [1] | Ki [1] | IC50 [2] | Ki [2] | IC50 [3] | IC50 (Adenosine receptor A2a) | IC50 [4] | IC50 [5] | Ki [5] | IC50 [6] | Ki [6]

CCOC(=O)n1ccn(C)c1=S [CARBIMAZOLE]
Not Active: IC50 [1] | Ki [1] | IC50 [2] | Ki [2] | IC50 [3] | IC50 (Adenosine receptor A2a) | IC50 [4] | IC50 [5] | Ki [5] | IC50 [6] | Ki [6]

Oc1ccccc1O [CATECHOL]
Not Active: IC50 [1] | Ki [1] | IC50 [2] | Ki [2] | IC50 [3] | IC50 (Adenosine receptor A2a) | IC50 [4] | IC50 [5] | Ki [5] | IC50 [6] | Ki [6]

CO[C@@]1(NC(=O)CSCC#N)C(=O)N2C(C(=O)O)=C(CSc3nnnn3C)CS[C@@H]21 [CEFMETAZOLE]
Not Active: IC50 [1] | Ki [1] | IC50 [2] | Ki [2] | IC50 [3] | IC50 (Adenosine receptor A2a) | IC50 [4] | IC50 [5] | Ki [5] | IC50 [6] | Ki [6]

CN(C(=O)CCCOc1ccc2[nH]c(=O)ccc2c1)C1CCCCC1 [CILOSTAMIDE]
Not Active: IC50 [1] | Ki [1] | IC50 [2] | Ki [2] | IC50 [3] | IC50 (Adenosine receptor A2a) | IC50 [4] | IC50 [5] | Ki [5] | IC50 [6] | Ki [6]

CC(C)(Oc1ccc(C2CC2(Cl)Cl)cc1)C(=O)O (configuration not stated) [CIPROFIBRATE]
Not Active: IC50 [1] | Ki [1] | IC50 [2] | Ki [2] | IC50 [3] | IC50 (Adenosine receptor A2a) | IC50 [4] | IC50 [5] | Ki [5] | IC50 [6] | Ki [6]

Nc1nc(Cl)nc2c1ncn2[C@H]1C[C@H](O)[C@@H](CO)O1 [CLADRIBINE]
Not Active: IC50 [1] | Ki [1] | IC50 [2] | Ki [2] | IC50 [3] | IC50 (Adenosine receptor A2a) | IC50 [4] | IC50 [5] | Ki [5] | IC50 [6] | Ki [6]

CC[C@H]1OC(=O)[C@H](C)[C@@H](O[C@H]2C[C@@](C)(OC)[C@@H](O)[C@H](C)O2)[C@H](C)[C@@H](O[C@@H]2O[C@H](C)C[C@H](N(C)C)[C@H]2O)[C@](C)(OC)C[C@@H](C)C(=O)[C@H](C)[C@@H](O)[C@]1(C)O [CLARITHROMYCIN]
Not Active: IC50 [1] | Ki [1] | IC50 [2] | Ki [2] | IC50 [3] | IC50 (Adenosine receptor A2a) | IC50 [4] | IC50 [5] | Ki [5] | IC50 [6] | Ki [6]

CCC[C@@H]1C[C@@H](C(=O)N[C@@H]([C@H]2O[C@H](SC)[C@H](O)[C@@H](O)[C@H]2O)[C@H](C)Cl)N(C)C1 [CLINDAMYCIN]
Not Active: IC50 [1] | Ki [1] | IC50 [2] | Ki [2] | IC50 [3] | IC50 (Adenosine receptor A2a) | IC50 [4] | IC50 [5] | Ki [5] | IC50 [6] | Ki [6]

O=C(O)c1cc(=O)c2c(OCC(O)COc3cccc4oc(C(=O)O)cc(=O)c34)cccc2o1 [CROMOLYN]
Not Active: IC50 [1] | Ki [1] | IC50 [2] | Ki [2] | IC50 [3] | IC50 (Adenosine receptor A2a) | IC50 [4] | IC50 [5] | Ki [5] | IC50 [6] | Ki [6]

O=P1(N(CCCl)CCCl)NCCCO1 (configuration not stated) [CYCLOPHOSPHAMIDE ANHYDROUS]
Not Active: IC50 [1] | Ki [1] | IC50 [2] | Ki [2] | IC50 [3] | IC50 (Adenosine receptor A2a) | IC50 [4] | IC50 [5] | Ki [5] | IC50 [6] | Ki [6]

CC(=O)O[C@]1(C(C)=O)CC[C@H]2[C@@H]3C=C(Cl)C4=CC(=O)[C@@H]5C[C@@H]5[C@]4(C)[C@H]3CC[C@@]21C [CYPROTERONE ACETATE]
Not Active: IC50 [1] | Ki [1] | IC50 [2] | Ki [2] | IC50 [3] | IC50 (Adenosine receptor A2a) | IC50 [4] | IC50 [5] | Ki [5] | IC50 [6] | Ki [6]

Nc1nc(N)nc(NC2CC2)n1 [CYROMAZINE]
Not Active: IC50 [1] | Ki [1] | IC50 [2] | Ki [2] | IC50 [3] | IC50 (Adenosine receptor A2a) | IC50 [4] | IC50 [5] | Ki [5] | IC50 [6] | Ki [6]
